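1) Cells in 96-well plates. 2) Compound, 48 h, 5 concentrations. 3) Linear interpolation between surrounding doses. 4) Unreached endpoint = highest concentration. The concentration for 50% growth inhibition is given as GI50.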 Activity calls are given as the source filed them. No stated cut-off is given here; in the data, active = GI50 up to about 1.1 µM and inactive = higher.
Assays:
Experiment in all cases: NCI-60 cell line screen, 48 h
[1] = system: SR
[2] = system: SK-MEL-28
[3] = system: UACC-62
[4] = system: SK-MEL-5
[5] = system: OVCAR-4
[6] = system: MDA-MB-435
[7] = system: Hs-578T
[8] = system: PC-3
[9] = system: SF-295
[10] = system: MDA-N
[11] = system: UACC-257
[12] = system: SW-620
[13] = system: OVCAR-3
[14] = system: EKVX
[15] = system: RPMI-8226
[16] = system: HCC 2998
[17] = system: 786-0
[18] = system: MDA-MB-231
[19] = system: A549
[20] = system: SK-MEL-2
[21] = system: CCRF-CEM
[22] = system: NCI-H23
[23] = system: SK-OV-3
[24] = system: HCT-15
[25] = system: LOX IMVI
[26] = system: MCF7
[27] = system: OVCAR-8
[28] = system: RXF 393
[29] = system: SNB-19
[30] = system: HCT-116
[31] = system: HL-60
[32] = system: IGROV-1
[33] = system: CAKI-1
[34] = system: HOP-92
[35] = system: BT-549
[36] = system: SF-539
[37] = system: HT-29
[38] = system: K562
[39] = system: T47D
[40] = system: SF-268
[41] = system: M14
[42] = system: SN12C
[43] = system: UO-31
[44] = system: COLO 205
[45] = system: SNB-75
[46] = system: A498
[47] = system: KM12
[48] = system: NCI/ADR-RES
[49] = system: Malme-3M
[50] = system: U-251
[51] = system: NCI-H460
[52] = system: DU-145
[53] = system: TK-10
[54] = system: HOP-62
[55] = system: ACHN
[56] = system: OVCAR-5
[57] = system: MOLT-4
[58] = system: NCI-H522
[59] = system: NCI-H226

Measured: GI50

COc1ccc(/C=C2\C(=O)N(C3OC(COC(C)=O)C(OC(C)=O)C(OC(C)=O)C3OC(C)=O)c3ccccc3N=C2N)cc1 (centres undefined)
inactive: [1] 5.37 µM | [2] 23.9 µM | [3] 17.5 µM | [4] 11.3 µM | [5] 33.5 µM | [6] 4.65 µM | [7] 34.6 µM | [8] 23.7 µM | [9] 21.9 µM | [10] 4.48 µM | [11] 24.5 µM | [12] 30.7 µM | [13] 23.2 µM | [14] 26.8 µM | [15] 16 µM | [16] 21.8 µM | [17] 17.5 µM | [18] 43.5 µM | [19] 29.2 µM | [20] 23.1 µM | [21] 16.8 µM | [22] 20 µM | [23] 27.6 µM | [25] 24.5 µM | [26] 19.1 µM | [27] 19.4 µM | [28] 21.8 µM | [29] 42.7 µM | [30] 19.7 µM | [31] 18.2 µM | [32] 27.3 µM | [33] 31.4 µM | [34] 71.4 µM | [35] 23.9 µM | [36] 9.06 µM | [37] 18.8 µM | [38] 11.9 µM | [39] 14 µM | [40] 32.5 µM | [41] 20.7 µM | [42] 36.9 µM | [43] 32.4 µM | [44] 15.6 µM | [45] 23.2 µM | [46] 28.2 µM | [47] 16.9 µM | [48] 20.5 µM | [49] 27.4 µM | [50] 27.1 µM | [51] 25.1 µM | [52] 25.7 µM | [53] 34 µM | [54] 28.9 µM | [55] 38.5 µM | [56] 33.9 µM | [57] 18.3 µM
12.9 µM: [24]

Cn1c(=O)c2c(nc(NCCCCl)n2CC(=O)O)n(C)c1=O
> 100 µM: [24]
inactive: [58] > 100 µM | [2] > 100 µM | [3] > 100 µM | [4] > 100 µM | [5] > 100 µM | [6] > 100 µM | [7] > 100 µM | [8] > 100 µM | [9] > 100 µM | [10] > 100 µM | [11] > 100 µM | [12] > 100 µM | [13] > 100 µM | [14] > 100 µM | [15] > 100 µM | [16] > 100 µM | [17] > 100 µM | [18] > 100 µM | [19] > 100 µM | [20] > 100 µM | [21] > 100 µM | [22] > 100 µM | [23] > 100 µM | [25] > 100 µM | [26] > 100 µM | [27] > 100 µM | [28] > 100 µM | [59] > 100 µM | [29] > 100 µM | [30] > 100 µM | [31] > 100 µM | [32] > 100 µM | [33] > 100 µM | [34] > 100 µM | [35] > 100 µM | [37] > 100 µM | [38] > 100 µM | [39] > 100 µM | [40] > 100 µM | [41] > 100 µM | [42] > 100 µM | [43] > 100 µM | [44] > 100 µM | [45] > 100 µM | [46] > 100 µM | [47] > 100 µM | [48] > 100 µM | [50] > 100 µM | [51] > 100 µM | [52] > 100 µM | [53] > 100 µM | [54] > 100 µM | [55] > 100 µM | [56] > 100 µM | [57] 2.74 µM
active: [1] < 0.01 µM

Reference: ChEMBL document CHEMBL1201862, “PubChem BioAssay data set” (2004)
